Consider one molecule from patent publication US7799794B2, “Treatment for cardiovascular disease” (Merck Sharp & Dohme Corp., priority 2000, dated 2010).

The assay deals with Sprague-Dawley rats. The assay is described as follows: Renal findings at 7 weeks: immunohistochemistry and BUN (Example 2). Type of assay: in vivo, rat. Particulars: low NaCl diet. The method, then: Rats were placed on a low sodium diet (NaCl, 0.125%) with or without 2% oxonic acid for 7 weeks. A third group were administered allopurinol in the drinking water (150 mg/L) with weekly adjustments of the dose depending on the uric acid level.
Am J Clin Pathol 1957; 28:152.]. Serum blood urea nitrogen was measured by a standard kit (Sigma, St Louis, Mo.).
Renal biopsies were fixed in Methyl-Carnoy's, 10% formalin or 100% ethanol and embedded in paraffin. The presence of uric acid crystals was evaluated by staining 4-μm ethanol-fixed sections with de Galantha and modified Von Kossa stains. Kidney tissue from rats with acute uric acid nephropathy, induced with oxonic acid and uric acid administration was used as a positive control [Stavric, B., Johnson, W. J., and Grice, H. C., Uric acid nephropathy: An experimental model, Proc. Soc. Exp. Biol. Med. 130: 512-16 (1969).]. Light microscopy was performed in 4-μm sections of Methyl-Carnoy's fixed tissue stained with periodic acid Schiff (PAS) reagent or with hematoxylin and eosin.
Methyl-Carnoy's fixed tissue sections were analyzed by indirect immunoperoxidase [Lombardi, D., Gordon , K. L., Polinsky, P., Suga, S., Schwartz, S. M., and Johnson, R. J. Salt sensitive hypertension develops after transient exposure to angiotensin II. Hypertension 33:1013-1019, 1999] staining with the following primary antibodies: OP199, a goat polyclonal antibody against osteopontin (OPN)(gift of C. Giachelli, Univ of Wash., Seattle); ED-1, a monoclonal antibody to rat monocytes and macrophages (Serotec); goat antihuman type III collagen (Southern Biotechnology Associates Inc, Birminghan Ala.); and anti-renin, a mouse antibody to human renin (Sanofi Recherche, Montpellier, France). Sections were incubated with a secondary antibody followed by horseradish peroxidase-conjugated avidin D (Vector Laboratories, Burlingame, Calif.), diaminobenzidine (Sigma) with or without nickel chloride as a chromogen, and counsterstained with methyl green.
NOS1 was detected on formalin fixed tissue sections with a rabbit anti-rat neuronal nitric oxide synthase (Transduction Laboratories, Lexington, Ky.), followed by a biotinylated secondary antibody, diaminobenzidine with nickel chloride and counterstained with nuclear fast red.
All quantification was performed blinded. The tubular expression of osteopontin (OPN), which is a sensitive marker of tubulointerstitial injury, was calculated as the percent of renal cortex occupied by OPN-positive tubules [Lombardi, D., Gordon, K. L., Polinsky, P., Suga, S., Schwartz, S. M., and Johnson, R. J. Salt sensitive hypertension develops after transient exposure to angiotensin II. Hypertension 33:1013-1019, 1999]. Utilizing computer-assisted image analysis software (Optimas V6.2, Media Cybernetics, Silver Springs, Md.) and digitized images, the percent of area occupied by OPN positive tubules per 4 mm^2 field at a magnification of 50× was measured and the mean percent area calculated for each biopsy. The interstitial deposition of collagen type III was calculated as the % of renal cortex occupied by collagen III, noted by immunostaining, by computer image analysis. The mean number of interstitial macrophages (ED-1+cells) in each biopsy was calculated in a blinded manner by counting the total number of positive interstitial cortical cells in 20 sequentially selected 0.25 mm^2 grids at 200× magnification. Renin expression was quantified by the number of glomeruli with positive staining for juxtaglomerular renin using a minimum of 100 glomeruli in each biopsy as previously described [Eng, E., et al., Renal proliferation and phenotypic changes in rats with two-kidney, one-clip Goldblatt hypertension. Am J Hypertens 7:177-185 (1994)]; this has been shown previously to correlate with intrarenal renin content[Eng, E., et al., Renal proliferation and phenotypic changes in rats with two-kidney, one-clip Goldblatt hypertension. Am J Hypertens 7:177-185 (1994)]. […]

As for `O=C(O)c1nc(=O)[nH]c(=O)[nH]1` [oxonic acid], under “control 39.6 ± 2.0”, the Renin is reported as 60.9 ± 1.5 % positive JGA. Moreover, the NOS-1 (control 147.2 ± 12.4) is listed as 80.4 ± 4.3 positive cells/100 glomeruli. Where the note is “mean±SE, control 0.9 ± 0.06”, the OPN was found to be 1.8 ± 0.06 % increase. In addition, the “Type III collagen” value (mean±SE, control 5.4 ± 0.3) was 8.8 ± 1.5 %. In addition, the BUN (mean±SE, control 14.4 ± 1.2) stood at 23.2 ± 2.3 mg/dL. Under “mean±SE, control 18.3 ± 1.3”, the “ED-1 (macrophages)” value is reported as 27.2 ± 1.9 cells/mm2.
